Earlier results in publication PMC3068529 (Journal of the American Chemical Society, 2011).

Molecular target: T1, TLR3 (Homo sapiens, UniProt O15455)
T1 sequence (O15455 24-904): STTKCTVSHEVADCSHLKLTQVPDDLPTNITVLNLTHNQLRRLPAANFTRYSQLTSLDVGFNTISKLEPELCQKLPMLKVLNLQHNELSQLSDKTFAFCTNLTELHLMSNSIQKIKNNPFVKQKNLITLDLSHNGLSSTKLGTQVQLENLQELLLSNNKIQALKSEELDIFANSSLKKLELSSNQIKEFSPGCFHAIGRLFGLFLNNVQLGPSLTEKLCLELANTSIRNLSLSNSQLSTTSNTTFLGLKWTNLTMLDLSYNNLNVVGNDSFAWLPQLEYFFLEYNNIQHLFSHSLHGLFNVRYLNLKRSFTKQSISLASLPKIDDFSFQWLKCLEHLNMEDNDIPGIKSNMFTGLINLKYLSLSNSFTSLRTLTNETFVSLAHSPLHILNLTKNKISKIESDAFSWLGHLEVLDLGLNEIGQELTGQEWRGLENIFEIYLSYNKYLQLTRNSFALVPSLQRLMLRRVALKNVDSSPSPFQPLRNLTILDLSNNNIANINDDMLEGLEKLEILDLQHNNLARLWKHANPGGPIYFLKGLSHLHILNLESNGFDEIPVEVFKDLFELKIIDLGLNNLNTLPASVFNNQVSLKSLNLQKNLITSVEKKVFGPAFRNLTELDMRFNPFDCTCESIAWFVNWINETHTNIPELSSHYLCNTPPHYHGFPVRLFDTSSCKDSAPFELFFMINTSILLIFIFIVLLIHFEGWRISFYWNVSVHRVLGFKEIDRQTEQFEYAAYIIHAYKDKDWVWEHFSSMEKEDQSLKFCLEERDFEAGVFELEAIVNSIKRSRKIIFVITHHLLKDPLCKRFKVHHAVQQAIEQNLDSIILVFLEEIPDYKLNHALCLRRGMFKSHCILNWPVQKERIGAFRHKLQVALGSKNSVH
Conditions: dsRNA binding to TLR3

- Kd: 19 ± 0.9 nM
Substance: polyriboinosinic:polyribocytidylic acid [dsRNA]
